Our source for the IC50 and EC50 values is patent publication US12590062B2, “PD-1/PD-L1 inhibitors” (Gilead Sciences, Inc., priority 2017, dated 2026).

Some results are limits rather than exact numbers.

One assay concerns the target PD-1/PD-L1 (Homo sapiens, UniProt Q9NZQ7). Put plainly: PD-1/PD-L1 biochemical protein-protein interaction assay (ALPHA). The settings on record: 0.3 nM His tagged PD-L1, 2.5 nM biotinylated Fc-PD-1, 60 minutes at 25° C., read-out: IC50 PD-L1-PD-1 Alpha IC50-mono PD-L1-fcP-D1. The assay is classed as binding. The method in brief: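 ALPHA bead proximity assay of extracellular domains: 0.3 nM His-PD-L1 with 2.5 nM biotinylated Fc-PD-1 in 25 mM Hepes pH 7.4, 150 mM NaCl, 3.4 mM EDTA, 0.005% Tween 20, 0.01% BSA, 60 min at 25 °C. Anti-His acceptor and streptavidin donor beads added; IC50 from four-parameter fit of signal loss.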

The target of the next assay is T1, PD-1/PD-L1 interaction (Homo sapiens, UniProt Q9NZQ7).
T1 construct: expressed in transfected cells; host or cells: CHO cells (aAPC-PD-L1) co-cultured with Jurkat cells overexpressing PD-1 and an NFAT-luciferase reporter
Put plainly: PD-1/PD-L1 NFAT reporter co-culture assay. It is filed as cell-based. The settings on record: Jurkat PD-1 NFAT-luciferase cells co-cultured with aAPC-PD-L1 CHO cells, 6 hrs at 37° C.; read-out: EC50 NFAT Luciferase. The method in brief: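 Jurkat cells overexpressing PD-1 with NFAT-luciferase mixed with compounds and plated onto CHO aAPCs expressing anti-CD3 and PD-L1, RPMI with 2% FBS. Co-culture 6 h at 37 °C; luminescence read with ONE-Glo. EC50 from four-parameter fit.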

T1 sequence (Q9NZQ7 19-290): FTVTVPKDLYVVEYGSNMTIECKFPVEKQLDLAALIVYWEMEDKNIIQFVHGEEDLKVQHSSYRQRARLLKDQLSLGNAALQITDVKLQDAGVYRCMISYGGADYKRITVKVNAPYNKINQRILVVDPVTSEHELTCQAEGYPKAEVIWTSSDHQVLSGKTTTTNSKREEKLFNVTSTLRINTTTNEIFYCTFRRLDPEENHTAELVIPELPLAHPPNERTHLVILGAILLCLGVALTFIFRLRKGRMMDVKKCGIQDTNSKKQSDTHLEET
PD-1/PD-L1, sequence (Q9NZQ7 19-238 limits assumed): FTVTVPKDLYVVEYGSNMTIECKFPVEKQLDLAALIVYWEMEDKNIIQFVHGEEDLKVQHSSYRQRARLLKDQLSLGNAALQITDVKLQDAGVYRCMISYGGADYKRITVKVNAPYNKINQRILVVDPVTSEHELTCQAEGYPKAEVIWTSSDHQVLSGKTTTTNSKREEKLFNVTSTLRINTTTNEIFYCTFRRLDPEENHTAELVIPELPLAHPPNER

With `CCOc1nc(OCc2cccc(-c3cccc(COc4ccc(CNCCO)c(OCC)n4)c3C)c2C)ccc1CNCCO` [Example 271, 2,2′-((((((2,2′-dimethyl-[1,1′-biphenyl]-3,3′-diyl)bis(methylene))bis(oxy))bis(2-ethoxypyridine-6,3-diyl))bis(methylene))bis(azanediyl))bis(ethan-1-ol)], the IC50 at PD-1/PD-L1 came out at 56 nM. Besides, at PD-1/PD-L1 interaction, the EC50 was ≥ 50000 nM.
Taken in the same sequence, the figures for `Cc1c(COc2ccc(CNC[C@@H](O)CC(=O)O)c(-c3cncc(C#N)c3)c2)cccc1-c1cccc(COc2ccc(CNC[C@@H](O)CC(=O)O)c(-c3cncc(C#N)c3)c2)c1C` [Example 272, (3S,3′S)-4,4′-((((((2,2′-dimethyl-[1,1′-biphenyl]-3,3′-diyl)bis(methylene))bis(oxy))bis(2-(5-cyanopyridin-3-yl)-4,1-phenylene))bis(methylene))bis(azanediyl))bis(3-hydroxybutanoic acid)] were 2.5 nM and 37700 nM.
Taken in the same sequence, the figures for `Cc1c(COc2cc(OCc3nc4ccccc4[nH]3)c(CNC[C@@H](O)CC(=O)O)cc2Cl)cccc1-c1cccc(COc2cc(OCc3nc4ccccc4[nH]3)c(CNC[C@@H](O)CC(=O)O)cc2Cl)c1C` [Example 273, (3S,3′S)-4,4′-((((((2,2′-dimethyl-[1,1′-biphenyl]-3,3′-diyl)bis(methylene))bis(oxy))bis(2-((1H-benzo[d]imidazol-2-yl)methoxy)-5-chloro-4,1-phenylene))bis(methylene))bis(azanediyl))bis(3-hydroxybutanoic acid)] were 200 nM and ≥ 50000 nM.
With `Cc1c(COc2cc(OCc3cncc(C#N)c3)c(CNCc3ccccn3)cc2Br)cccc1-c1cccc(COc2cc(OCc3cncc(C#N)c3)c(CNCc3ccccn3)cc2Br)c1C` [Example 275, 5,5′-((((((2,2′-dimethyl-[1,1′-biphenyl]-3,3′-diyl)bis(methylene))bis(oxy))bis(4-bromo-6-(((pyridin-2-ylmethyl)amino)methyl)-3,1-phenylene))bis(oxy))bis(methylene))dinicotinonitrile], the IC50 at PD-1/PD-L1 was determined as 154 nM. Besides, the EC50 at PD-1/PD-L1 interaction is 10400 nM.
Take `Cc1c(COc2cc(OCc3cncc(C#N)c3)c(CNC[C@@H](F)C(C)(C)O)cc2Cl)cccc1-c1cccc(COc2cc(OCc3cncc(C#N)c3)c(CNC[C@@H](F)C(C)(C)O)cc2Cl)c1C` [Example 276, 5,5′-((((((2,2′-dimethyl-[1,1′-biphenyl]-3,3′-diyl)bis(methylene))bis(oxy))bis(4-chloro-6-((((R)-2-fluoro-3-hydroxy-3-methylbutyl)amino)methyl)-3,1-phenylene))bis(oxy))bis(methylene))dinicotinonitrile]: at PD-1/PD-L1, the IC50 worked out at 77.8 nM. The EC50 at PD-1/PD-L1 interaction was 2050 nM.
As to `Cc1c(COc2cc(O)c(CNC[C@@H](F)C(C)(C)O)cc2Cl)cccc1-c1cccc(COc2cc(OCc3cncc(C#N)c3)c(CNC[C@@H](F)C(C)(C)O)cc2Cl)c1C` [Example 277, 5-((4-chloro-5-((3′-((2-chloro-4-((((R)-2-fluoro-3-hydroxy-3-methylbutyl)amino)methyl)-5-hydroxyphenoxy)methyl)-2,2′-dimethyl-[1,1′-biphenyl]-3-yl)methoxy)-2-((((R)-2-fluoro-3-hydroxy-3-methylbutyl)amino)methyl)phenoxy)methyl)nicotinonitrile], the IC50 on PD-1/PD-L1 was 125 nM. Moreover, the EC50 on PD-1/PD-L1 interaction was ≥ 50000 nM.
As for `Cc1c(COc2cc(OCc3cncc(C#N)c3)c(CNC(CO)CO)cc2Cl)cccc1-c1cccc(COc2cc(OCc3cncc(C#N)c3)c(CNC(CO)CO)cc2Cl)c1C` [Example 281, 5,5′-((((((2,2′-dimethyl-[1,1′-biphenyl]-3,3′-diyl)bis(methylene))bis(oxy))bis(4-chloro-6-(((1,3-dihydroxypropan-2-yl)amino)methyl)-3,1-phenylene))bis(oxy))bis(methylene))dinicotinonitrile], the IC50 on PD-1/PD-L1 amounted to 8.7 nM. Moreover, the EC50 on PD-1/PD-L1 interaction amounted to 488 nM.
On to `Cc1c(COc2ccc(CNC[C@@H](O)CC(=O)O)cc2Cl)cccc1-c1cccc(COc2ccc(CNC[C@@H](O)CC(=O)O)cc2Cl)c1C` [Example 283, (3S,3′S)-4,4′-((((((2,2′-dimethyl-[1,1′-biphenyl]-3,3′-diyl)bis(methylene))bis(oxy))bis(3-chloro-4,1-phenylene))bis(methylene))bis(azanediyl))bis(3-hydroxybutanoic acid)], for which the concentration for half-maximal inhibition (IC50) on PD-1/PD-L1 was determined as 0.8 nM. Besides, the EC50 on PD-1/PD-L1 interaction worked out at 20900 nM.
`CCOC(=O)CNCc1cc(Cl)c(O[C@H]2CCc3c(-c4cccc5c4CC[C@@H]5Oc4nc(OC)c(CNCC(=O)OCC)cc4Cl)cccc32)nc1OC` [Example 287, Diethyl 2,2′-((((((1S,1′S)-2,2′,3,3′-tetrahydro-1H,1′H-[4,4′-biindene]-1,1′-diyl)bis(oxy))bis(5-chloro-2-methoxypyridine-6,3-diyl))bis(methylene))bis(azanediyl))diacetate]: the IC50 on PD-1/PD-L1 came out at 457 nM. At PD-1/PD-L1 interaction, the EC50 was 958 nM.
Taken in the same sequence, the figures for `CC(CO)(NCc1cc(Cl)c(O[C@H]2CCc3c(-c4cccc5c4CC[C@@H]5Oc4nc(OCc5cncc(S(C)(=O)=O)c5)c(CNC(C)(CO)C(=O)O)cc4Cl)cccc32)nc1OCc1cncc(S(C)(=O)=O)c1)C(=O)O` (stereo partly drawn) [Example 298] were 0.051 nM and 21 nM.
Taken in the same sequence, the figures for `Cc1c(COc2cc(OCc3cncc(C#N)c3)c(CNC[C@@H](O)CC(=O)O)cc2Cl)cccc1-c1cccc(-c2ccc(OCCNC[C@@H](O)CC(=O)O)c(F)c2)c1C` [Example 314] were 0.064 nM and 188 nM.
Taken in the same sequence, the figures for `Cc1c(COc2cc(OCc3cncc(C#N)c3)c(CNC[C@@H](O)CC(=O)O)cc2Cl)cccc1-c1cccc(-c2ccc(OCCNC[C@@H](O)CC(=O)O)cc2Cl)c1C` [Example 315, (S)-4-((4-((4″-(2-(((S)-3-carboxy-2-hydroxypropyl)amino)ethoxy)-2″-chloro-2,2′-dimethyl-[1,1′:3′,1″-terphenyl]-3-yl)methoxy)-5-chloro-2-((5-cyanopyridin-3-yl)methoxy)benzyl)amino)-3-hydroxybutanoic acid] were 0.242 nM and 1250 nM.
Regarding `Cc1c(-c2ccc(OCCNC[C@@H](O)CC(=O)O)cc2)cccc1-c1cccc2c1CC[C@@H]2Oc1nc(OCCCC#N)c(CNC[C@@H](O)CC(=O)O)cc1Br` [Example 327, (S)-4-((2-((3′-((S)-1-((3-bromo-5-((((S)-3-carboxy-2-hydroxypropyl)amino)methyl)-6-(3-cyanopropoxy)pyridin-2-yl)oxy)-2,3-dihydro-1H-inden-4-yl)-2′-methyl-[1,1′-biphenyl]-4-yl)oxy)ethyl)amino)-3-hydroxybutanoic acid], the IC50 on PD-1/PD-L1 was found to be 0.051 nM. Besides, at PD-1/PD-L1 interaction, the EC50 is 114 nM.
Regarding `Cc1c(COc2cc(OCc3cncc(C#N)c3)c(CNC[C@@H](O)CC(=O)O)cc2Cl)cccc1-c1cccc(-c2ccc3ncnc(NCCO)c3c2)c1C` [Example 337, (S)-4-((5-chloro-2-((5-cyanopyridin-3-yl)methoxy)-4-((3′-(4-((2-hydroxyethyl)amino)quinazolin-6-yl)-2,2′-dimethyl-[1,1′-biphenyl]-3-yl)methoxy)benzyl)amino)-3-hydroxybutanoic acid], the IC50 on PD-1/PD-L1 is 0.287 nM. Moreover, the half-maximal effective concentration (EC50) on PD-1/PD-L1 interaction was determined as 1920 nM.
Turning to `Cc1c(COc2cc(OCc3cncc(C#N)c3)c(CNC[C@@H](O)CC(=O)O)cc2Cl)cccc1-c1cccc(-c2ccc(N3CCNCC3)cc2)c1C` [Example 339, (S)-4-((5-chloro-2-((5-cyanopyridin-3-yl)methoxy)-4-((2,2′-dimethyl-4″-(piperazin-1-yl)-[1,1′:3′,1″-terphenyl]-3-yl)methoxy)benzyl)amino)-3-hydroxybutanoic acid], the IC50 at PD-1/PD-L1 is 1.3 nM. The EC50 at PD-1/PD-L1 interaction was found to be 2220 nM.
Taken in the same sequence, the figures for `COc1cc(OCc2cccc(-c3cccc(COc4cc(OCc5cncc(C#N)c5)c(CNC[C@@H](O)CC(=O)O)cc4Cl)c3C)c2C)c(Cl)cc1CNCC(=O)NS(C)(=O)=O` [Example 355, (S)-4-((5-chloro-4-((3′-((2-chloro-5-methoxy-4-(((2-(methylsulfonamido)-2-oxoethyl)amino)methyl)phenoxy)methyl)-2,2′-dimethyl-[1,1′-biphenyl]-3-yl)methoxy)-2-((5-cyanopyridin-3-yl)methoxy)benzyl)amino)-3-hydroxybutanoic acid] were 0.148 nM and 712 nM.
Taken in the same sequence, the figures for `Cc1c(COc2cc(OCc3cncc(C#N)c3)c(CN(C)C)cc2Cl)cccc1-c1cccc(-c2ccc(CN(C)C)s2)c1C` [Example 366, 5-((4-chloro-2-((dimethylamino)methyl)-5-((3′-(5-((dimethylamino)methyl)thiophen-2-yl)-2,2′-dimethyl-[1,1′-biphenyl]-3-yl)methoxy)phenoxy)methyl)nicotinonitrile] were 2.33 nM and 2840 nM.
As for `Cc1c(COc2cc(OCc3cncc(C#N)c3)c(CN[C@@](C)(CO)C(=O)O)cc2Cl)cccc1-c1cccc(-c2ccc3c(c2)OCC3N(C)C)c1C` (stereo partly drawn) [Example 376, (2S)-2-((5-chloro-2-((5-cyanopyridin-3-yl)methoxy)-4-((3′-(3-(dimethylamino)-2,3-dihydrobenzofuran-6-yl)-2,2′-dimethyl-[1,1′-biphenyl]-3-yl)methoxy)benzyl)amino)-3-hydroxy-2-methylpropanoic acid], the IC50 on PD-1/PD-L1 came out at 0.346 nM. The EC50 on PD-1/PD-L1 interaction is 770 nM.
